Reference: patent publication US20240325557A1, “TREATMENT OF CANCER” (INNATE PHARMA, priority 2020, published 2024)

Assays:
SUM185 cells = test: In vitro ADC cytotoxicity, 5 days, CTG; format: cell-based, human; settings: model of anti-HER2 resistance
Protocol: Luminescence vs. Ab concentration was plotted on graph.
For each ADC, a concentration range of ADC was incubated with nectin-4-expressing cells. After incubation, CTG substrate was added at 1/1 ratio and the luminescent signal was read with a plate reader (Enspire). It allowed quantifying the ATP present (indicator of metabolically active cells) which was proportional to cell viability.
This setting is used as a model of anti-HER2 resistance.
For each ADC, a concentration range of ADC was incubated with nectin-4-expressing cells. After incubation, CTG substrate was added at 1:1 ratio and the luminescent signal was read with a plate reader (Enspire), allowing quantification of the ATP present (indicator of metabolically active cells) which was proportional to cell viability.

[1] = test system: MC-38 cells that endogenously express MDR1 P-glycoprotein engineered to express Nectin-4; test: In vitro efficacy of ADCs in Pgp-expressing cancer model (CTG, five days); format: cell-based; settings: presence or absence of cyclosporin A (5 μM); 150 nM ADC, normalized to control antibody
Protocol: MC-38 cells that endogenously express MDR1 P-glycoprotein (Pgp) were engineered to express Nectin-4 and cultured in DMEM+10% FBS. Cells were either treated with vehicle (DSMO) or with cyclosporin A (5 μM, stock solution in DMSO) known to act as an inhibitor of Pgp, in presence of ADCs.
The ADCs and the equivalent isotype control ADCs were used at dose range from 150 to 2.3 10^−3 nM. After five days of co-incubation with cells, cell viability was measured by addition of Cell Titer Glo™ (CTG) substrate. Luminescence vs. Ab concentration was plotted.

[2] = UC patients; cited from earlier work
[3] = target: T1, Hu-Nectin4 IgC1C2-V5 (modified Nectin-4 lacking the Ig-like V domain, C1C2 construct) (Homo sapiens, UniProt Q96NY8); test: Flow cytometry binding to cells expressing the Nectin-4 C1C2 construct
T1 construct: expressed in transfected cells; host or cells: CHO
T1 sequence (Q96NY8 148-510): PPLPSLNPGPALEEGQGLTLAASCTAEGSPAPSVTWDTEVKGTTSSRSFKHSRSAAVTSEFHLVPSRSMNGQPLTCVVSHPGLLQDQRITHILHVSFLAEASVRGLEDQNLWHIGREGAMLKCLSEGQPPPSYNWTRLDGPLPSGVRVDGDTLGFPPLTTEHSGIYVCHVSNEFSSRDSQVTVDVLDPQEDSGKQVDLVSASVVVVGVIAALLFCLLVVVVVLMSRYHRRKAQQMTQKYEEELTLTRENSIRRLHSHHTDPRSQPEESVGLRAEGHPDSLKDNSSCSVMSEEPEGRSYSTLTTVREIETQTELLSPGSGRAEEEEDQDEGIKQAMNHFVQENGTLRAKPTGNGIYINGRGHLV
Protocol: (§1) The characterization of the binding of the antibodies on Nectin-4 domains was performed by flow cytometry using cells made to express the wild-type human Nectin-4 protein and cells made to express a modified Nectin-4 having the Ig-like C2 type 1 and the Ig-like C2 type 2 domains and lacking the Ig-like V domain (the C1C2 construct). The latter protein additionally bears a V5 tag for flow cytometry cell sorting, and cells were used as Nectin4-C1C2-V5 sorted cells.
Wild-type Nectin-4 (the CI.3C8 cell line), a C2 construct (containing the Ig-like C2 type 2 domain and lacking both the V and the C1 domains) and the C1C2 construct allow the determination of whether test antibodies bind to the V or different C domains. Briefly, nucleic acid sequences encoding different human Nectin-4 domains were amplified by PCR. The PCR products were inserted into an expression vector at appropriate restriction sites. A leader peptide, and for C1C2 and C2 an N-terminal V5 tag having the amino acid sequence […] (SEQ ID NO: 41), were added, and expression at the surface of cells was confirmed by flow cytometry. The amino acid sequences of the resulting different human Nectin-4 domain fragment-containing proteins are shown below (V5 tag underlined). The vectors were then transfected into the CHO cell line to obtain stable clones expressing the different Nectin-4 domain proteins at the cell surface.

wild-type human Nectin-4 = target: T2, wild-type human Nectin-4 (Homo sapiens, UniProt Q96NY8); test: Flow cytometry binding to wild-type Nectin-4 expressing CHO cells
T2 construct: expressed in transfected cells; host or cells: CHO (huNectin4 Cl.3C8)
T2 sequence (Q96NY8 32-510): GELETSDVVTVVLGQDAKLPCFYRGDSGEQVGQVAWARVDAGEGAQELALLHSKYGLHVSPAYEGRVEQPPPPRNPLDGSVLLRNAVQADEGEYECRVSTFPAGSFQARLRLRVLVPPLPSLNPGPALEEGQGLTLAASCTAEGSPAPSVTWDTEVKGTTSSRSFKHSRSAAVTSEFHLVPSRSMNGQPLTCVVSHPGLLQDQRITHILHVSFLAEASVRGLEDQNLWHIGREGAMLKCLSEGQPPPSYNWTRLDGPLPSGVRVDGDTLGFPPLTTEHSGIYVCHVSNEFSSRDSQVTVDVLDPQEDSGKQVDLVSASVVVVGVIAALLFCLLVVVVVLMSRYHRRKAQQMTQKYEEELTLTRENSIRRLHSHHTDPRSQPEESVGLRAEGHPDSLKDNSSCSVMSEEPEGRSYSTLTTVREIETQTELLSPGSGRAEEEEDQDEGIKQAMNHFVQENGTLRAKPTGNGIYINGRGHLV
Protocol: plates of hybridoma supernatants were tested for binding on the wild-type human Nectin-4 expressing CHO cell line by flow cytometry. Briefly, Nectin-4 expressing cells were used at 0.2×10^6 cells by well in a buffer of PBS, BSA 0.5%, EDTA 5 mM. The first antibody was incubated with cells for 1h at +5±3° C. in 50 μL of supernatant. […] Acquisition HTFC flow cytometer (Intellicyt), with data analysis on ForeCyt™ software.
as §1
Wild-type Nectin-4 (the CI.3C8 cell line), a C2 construct (containing the Ig-like C2 type 2 domain and lacking both the V and the C1 domains) and the C1C2 construct allow the determination of whether test antibodies bind to the V or different C domains. Briefly, nucleic acid sequences encoding different human Nectin-4 domains were amplified by PCR. The PCR products were inserted into an expression vector at appropriate restriction sites. […]

SUM190 cells = test: In vivo efficacy of ADCs, SUM190 mouse model of human breast cancer (Example 9); settings: single i.v. injection 3 mg/kg; antibodies conjugated to ggfg-Dxd, DAR=8
Protocol: When tumors reached a volume between 195 and 250 mm3, mice were randomized into groups of 9 mice for intravenous treatment with a single injection of 3 mg/kg of camptothecin ADCs. Tumor growth were followed twice a week. Kaplan Meier survival curves were established by using GraphPad Prism V7 software according to the following criteria: When the tumor volume reached 1500 mm3, mice were euthanized and considered dead on the day of sacrifice (D).

rat Nectin-4 = test: Flow cytometry species cross-reactivity on CHO cells; format: binding
rat Nectin-4, sequence (as listed by the source): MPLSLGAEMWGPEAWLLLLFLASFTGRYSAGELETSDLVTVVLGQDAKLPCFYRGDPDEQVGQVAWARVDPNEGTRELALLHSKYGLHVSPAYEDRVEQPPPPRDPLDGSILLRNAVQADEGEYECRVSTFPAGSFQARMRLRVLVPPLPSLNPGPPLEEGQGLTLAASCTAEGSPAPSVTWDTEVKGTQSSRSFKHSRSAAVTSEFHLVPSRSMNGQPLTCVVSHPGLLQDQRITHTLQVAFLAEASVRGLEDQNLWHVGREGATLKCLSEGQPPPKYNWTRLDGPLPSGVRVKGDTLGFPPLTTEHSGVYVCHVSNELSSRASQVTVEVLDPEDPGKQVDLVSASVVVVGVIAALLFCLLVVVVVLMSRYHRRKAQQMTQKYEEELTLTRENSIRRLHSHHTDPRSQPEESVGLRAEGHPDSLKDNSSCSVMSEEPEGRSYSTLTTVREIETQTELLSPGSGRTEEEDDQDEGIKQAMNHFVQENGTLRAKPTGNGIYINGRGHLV
Protocol: Anti-Nectin-4 antibodies were tested by flow cytometry for binding to different CHO cell lines made to express respectively the mouse, cynomolgus and rat Nectin-4 protein (including an N-terminal V5 tag not shown in the sequences below).

[4] = target: T3, wild-type human Nectin-4 protein (huNectin4-his-BirA) (Homo sapiens, UniProt Q96NY8); test: Affinity determination by SPR (Biacore T200); format: binding; settings: 25° C.
T3 sequence (Q96NY8 with tags, fused parts or gaps): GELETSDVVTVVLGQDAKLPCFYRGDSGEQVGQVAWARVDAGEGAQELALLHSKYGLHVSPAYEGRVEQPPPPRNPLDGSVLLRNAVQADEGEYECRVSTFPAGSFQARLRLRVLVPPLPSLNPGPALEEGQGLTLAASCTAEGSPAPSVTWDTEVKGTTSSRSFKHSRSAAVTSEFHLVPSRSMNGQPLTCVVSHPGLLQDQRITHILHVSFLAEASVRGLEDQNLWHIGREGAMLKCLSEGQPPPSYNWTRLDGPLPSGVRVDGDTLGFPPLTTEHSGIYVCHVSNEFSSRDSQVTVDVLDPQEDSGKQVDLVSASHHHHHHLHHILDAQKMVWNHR
Protocol: Antibodies were tested for binding affinity to the wild-type human Nectin-4 protein by SPR (Surface Plasmon Resonance) methods. Measurements were performed on a Biacore T200 apparatus (Biacore GE Healthcare) at 25° C. Sensorgrams were analyzed with Biacore T100 Evaluation software. A CMR Sensor Chip with immobilized Protein A at about 600 RU was used. Anti-Nectin-4 antibodies were captured onto the Protein-A chip (antibodies diluted to 1 μg/ml in HBS-EP+1× buffer and injected over 120s at 40 μL/min). Recombinant human monomeric huNectin4-his-BirA protein was injected at different concentrations in a range from 100 nM to 1.56 nM over captured antibodies (HuNectin4-His-BirA diluted in HBS-EP+1× in ½ dilutions, injected over 120s at 40 μl/min) and allowed to dissociate for 600s. The chip was regenerated with NaOh 10 mM 2× for 30s at 40 μl/min. The sensorgram sets were fitted using the 1:1 kinetic binding model or two state reaction model, as a function of the profile of the curves.

[5] = 349 patients; cited from earlier work
[6] = failing prior chemotherapy; cited from earlier work

PADCEV
killing of SUM185 cells (cell viability) (SUM185 cells): able to kill the SUM185 more efficiently than ENHERTU
influence of Pgp on anti-tumor activity [1]: negatively affected by Pgp
CR (complete response rate) [2]: 12%
ORR (objective response rate) [2]: 44%
discontinuation due to clinical symptoms [2]: 5%
discontinuation due to progressive disease as assessed by RECIST [2]: 48%
patients that discontinued experienced adverse events, notably neuropathy [2]: 18%

Enfortumab [reference compound]
binding to the C1C2 construct [3]: lost all binding to the C1C2 construct
binding to whole (wild-type) human Nectin-4 protein (wild-type human Nectin-4): bound to the whole Nectin-4 protein
control of tumor growth (SUM190 cells): no longer showed the ability to control tumor growth
binding to rat Nectin-4 expressing CHO cells (rat Nectin-4): bind to rat Nectin-4
Kd [4]: 0.0137 µM
ka [4]: 340000 M⁻¹ s⁻¹
kd [4]: 0.0047 s⁻¹

CC[C@@]1(O)C(=O)OCc2c1cc1n(c2=O)Cc2c-1nc1cc(F)c(C)c3c1c2[C@@H](N)CC3 [exatecan]
efficacy in addition to gemcitabine versus gemcitabine alone [5]: not superior in efficacy to gemcitabine alone

CC[C@@]1(O)C(=O)OCc2c1cc1n(c2=O)Cc2cc3c([N+](=O)[O-])cccc3nc2-1 [RFS2000]
activity in patients [6]: did not exert significant activity
